The structures appear in SMILES notation.

The term EC50 denotes the concentration that produces a half-maximal response.

The target in one assay is T1, Kv3.1 (Homo sapiens, UniProt P48547).
T1 construct: expressed in transfected cells
T1 sequence (P48547 1-511): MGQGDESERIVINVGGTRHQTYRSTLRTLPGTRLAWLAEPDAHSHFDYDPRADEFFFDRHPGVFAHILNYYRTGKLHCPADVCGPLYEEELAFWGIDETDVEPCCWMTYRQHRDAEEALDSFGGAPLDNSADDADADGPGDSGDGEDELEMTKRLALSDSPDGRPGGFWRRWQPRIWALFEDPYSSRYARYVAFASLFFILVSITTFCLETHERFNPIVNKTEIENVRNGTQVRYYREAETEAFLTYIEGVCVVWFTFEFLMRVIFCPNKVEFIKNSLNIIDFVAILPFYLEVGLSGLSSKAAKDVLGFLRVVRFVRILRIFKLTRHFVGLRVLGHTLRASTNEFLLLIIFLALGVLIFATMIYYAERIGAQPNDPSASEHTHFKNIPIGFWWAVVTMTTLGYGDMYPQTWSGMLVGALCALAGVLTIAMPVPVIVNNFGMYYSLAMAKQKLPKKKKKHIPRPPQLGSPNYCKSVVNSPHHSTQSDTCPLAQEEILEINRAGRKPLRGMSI
Description: Kv3.1 automated patch clamp (Qube) cellular electrophysiology assay.
Settings: not given
The class given is cell-based. The text has this: In vitro, high-throughput cellular electrophysiology was employed to detect voltage-dependence of compounds in single concentration screening and IC50 determination for library and medicinal chemistry profiling compounds in 384 well plates.
HEK-293 cell lines stably expressing coding DNA for Kv3.1, 3.2, 3.3, and 3.4 were validated on an automated patch clamp (APC) platform, Qube from Sophion/Denmark. Cell cultures were maintained in DMEM cell growth media containing FBS and appropriate antibiotics at 37° C., 5% CO2 for a maximum of 20 passages. Intra- and extracellular (w. glucose) HEPES buffers containing various monovalent and divalent cations were adjusted to pH 7.2 and 7.4 respectively. Cells were harvested at 75% confluency and resuspended in extracellular buffer and added to wells. Negative pressure was applied to establish whole cell recording by APC.
Currents through activated channels were measured directly by APC by employing depolarization voltage steps. Baseline currents were established for the voltage-dependence protocols using a −80 mV holding potential and multiple test pulses at +10 mV or by 10 mV steps from −80 mV to +40 mV, respectively. Test compounds were added after baseline recordings followed by a 10 min incubation, and voltage-dependency protocol recordings. Data was corrected for baseline and leak currents (well based) and normalized for % potentiation (plate based). Two previously reported Kv3 positive modulators of varying potencies were used for run to run and plate to plate quality controls. A non-selective and potent positive modulator was used as a positive control. Percent potentiation was analyzed at −20 mV of the voltage-dependency protocol and voltage shift in channel activation was analyzed using the voltage step protocol from −80 mV to +40 mV. Selectivity was assessed against Kv3.2, Kv3.3, and Kv3.4 overexpressing cell lines using similar methods.
A general note: The patch-clamp technique gives a direct electrical read-out from membranes.
Regarding `COc1cc(Oc2ccc(-n3c(=O)[nH]c4cccnc43)cn2)ccc1C` [Example 33, 3-[6-(3-methoxy-4-methyl-phenoxy)-3-pyridyl]-1H-imidazo[4,5-b]pyridin-2-one], the EC50 was 3.4 µM.

Take `COc1cc(Oc2ccc(-n3c(=O)[nH]c4ccccc43)cn2)ccc1C` [Example 34, 3-[6-(3-methoxy-4-methyl-phenoxy)-3-pyridyl]-1H-benzimidazol-2-one]: the EC50 was determined as 5.2 µM.

With `Cc1ccc(Oc2ccc(-n3c(=O)[nH]c4cccnc43)cn2)cc1F` [Example 35, 3-[6-(3-fluoro-4-methyl-phenoxy)-3-pyridyl]-1H-imidazo[4,5-b]pyridin-2-one], the EC50 is 3.6 µM.

Take `Cc1ccc(Oc2ccc(-n3c(=O)[nH]c4cccnc43)cn2)c(F)c1` [Example 36, 3-[6-(2-fluoro-4-methyl-phenoxy)-3-pyridyl]-1H-imidazo[4,5-b]pyridin-2-one]: the 50% effective concentration (EC50) stood at 4.3 µM.

As for `Cc1cc(C#N)ccc1Oc1ccc(-n2c(=O)[nH]c3cccnc32)cn1` [Example 37, 3-methyl-4-[[5-(2-oxo-1H-imidazo[4,5-b]pyridin-3-yl)-2-pyridyl]oxy]benzonitrile], the EC50 came to 6 µM.

With `Cc1cc(C#N)cc(C)c1Oc1ccc(-n2c(=O)[nH]c3cccnc32)cn1` [Example 38, 3,5-dimethyl-4-[[5-(2-oxo-1H-imidazo[4,5-b]pyridin-3-yl)-2-pyridyl]oxy]benzonitrile], the EC50 worked out at 5.2 µM.

`COc1cc(C)ccc1Oc1ccc(-n2c(=O)[nH]c3cccnc32)cn1` [Example 39, 3-[6-(2-methoxy-4-methyl-phenoxy)-3-pyridyl]-1H-imidazo[4,5-b]pyridin-2-one]: the EC50 is 5 µM.

For the molecule `N#Cc1ccc(Oc2ccc(-n3c(=O)[nH]c4cccnc43)cn2)c(C(F)(F)F)c1` [Example 40, 4-[[5-(2-oxo-1H-imidazo[4,5-b]pyridin-3-yl)-2-pyridyl]oxy]-3-(trifluoromethyl)benzonitrile], the EC50 worked out at 6.6 µM.

For `COc1cc(Oc2ccc(-n3c(=O)[nH]c4cccnc43)cn2)cnc1C` [Example 41, 3-[6-[(5-methoxy-6-methyl-3-pyridyl)oxy]-3-pyridyl]-1H-imidazo[4,5-b]pyridin-2-one], the concentration for a half-maximal effect (EC50) was 16.4 µM.

On to `Cc1ccc(Oc2ccc(-n3c(=O)[nH]c4cnccc43)cn2)cc1Cl` [Example 42, 1-[6-(3-chloro-4-methyl-phenoxy)-3-pyridyl]-3H-imidazo[4,5-c]pyridin-2-one], for which the EC50 was found to be 10 µM.

Take `COc1cc(Oc2ccc(-n3c(=O)[nH]c4cncnc43)cn2)ccc1C` [Example 43, 9-[6-(3-methoxy-4-methyl-phenoxy)-3-pyridyl]-7H-purin-8-one]: the concentration giving a half-maximal response (EC50) worked out at 7.4 µM.

`COc1cc(Oc2ncc(-n3c(=O)[nH]c4cnccc43)cc2F)ccc1C` [Example 44, 1-[5-fluoro-6-(3-methoxy-4-methyl-phenoxy)-3-pyridyl]-3H-imidazo[4,5-c]pyridin-2-one]: the EC50 was 2.9 µM.

As for `COc1cc(Oc2ncc(-n3c(=O)[nH]c4cnccc43)cc2C)ccc1C` [Example 45, 1-[5-methyl-6-(3-methoxy-4-methyl-phenoxy)-3-pyridyl]-3H-imidazo[4,5-c]pyridin-2-one], the EC50 was 3.1 µM.

For `COc1cc(Oc2ncc(-n3c(=O)[nH]c4cccnc43)cc2C)ccc1C` [Example 46, 3-[6-(3-methoxy-4-methyl-phenoxy)-5-methyl-3-pyridyl]-1H-imidazo[4,5-b]pyridin-2-one], the EC50 amounted to 4 µM.

As for `COc1cc(Oc2ccc(-n3c(=O)[nH]c4nccnc43)cn2)ccc1C` [Example 48, 3-[6-(3-methoxy-4-methyl-phenoxy)-3-pyridyl]-1H-imidazo[4,5-b]pyrazin-2-one], the EC50 came to 3.9 µM.

As for `CCc1cc(Oc2ccc(-n3c(=O)[nH]c4cccnc43)cn2)ccc1C#N` [Example 49, 2-ethyl-4-[[5-(2-oxo-1H-imidazo[4,5-b]pyridin-3-yl)-2-pyridyl]oxy]benzonitrile], the 50% effective concentration (EC50) stood at 4.1 µM.

In the case of `Cc1ccc(Oc2ccc(-n3c(=O)[nH]c4cncnc43)cn2)cc1Cl` [Example 50, 9-[6-(3-chloro-4-methyl-phenoxy)-3-pyridyl]-7H-purin-8-one], the EC50 turned out to be 12.2 µM.

As to `CC(C)(C)c1cc(C#N)ccc1Oc1ccc(-n2c(=O)[nH]c3cccnc32)cc1F` [Example 51, 3-tert-butyl-4-[2-fluoro-4-(2-oxo-1H-imidazo[4,5-b]pyridin-3-yl)phenoxy]benzonitrile], the concentration for a half-maximal effect (EC50) stood at 12.7 µM.

For the molecule `CC(C)c1cc(C#N)ccc1O[C@H]1C[C@H](n2c(=O)[nH]c3cccnc32)C1` [Example 52, 3-isopropyl-4-[3-(2-oxo-1H-imidazo[4,5-b]pyridin-3-yl)cyclobutoxy]benzonitrile], the 50% effective concentration (EC50) came to 17.4 µM.

Consider `COc1cc(O[C@H]2C[C@H](n3c(=O)[nH]c4cnccc43)C2)ccc1C` [Example 53, 1-[3-(3-methoxy-4-methyl-phenoxy)cyclobutyl]-3H-imidazo[4,5-c]pyridin-2-one], for which the EC50 was 3.6 µM.

The same assay, now with this note: HEK-293 cell line stably expressing Kv3.1; automated patch clamp; 10 min incubation; read-out: EC50 Kv3.1.
With `Cc1ccc(Oc2ccc(-n3c(=O)[nH]c4cnccc43)cn2)cc1OC(F)(F)F` [Example 47, 1-[6-[4-methyl-3-(trifluoromethoxy)phenoxy]-3-pyridyl]-3H-imidazo[4,5-c]pyridin-2-one], the EC50 came to 2.4 µM.

For the origin of these results see US20230124087A1, “KV3 ENHANCERS FOR THE TREATMENT OF COGNITIVE DISORDERS” (Hoffmann-La Roche Inc., priority 2020, published 2023).
